Test [1] addresses T1, FGF-R1 (Homo sapiens, UniProt P11362, C488A/C584S/L457V).
T1 construct: starting from the endogenous methionine residue 456 to glutamate 766; made in house; host or cells: baculovirus vector expression system
In words: Fibroblast Growth Factor (FGF-R) spectrophotometric assay. The note with it: 1 μM compound; read-out: FGF-P % inhibit @1 μM. In kind it is biochemical. An excerpt: The intracellular kinase domain of human FGF-R1 was expressed using the baculovirus vector expression system starting from the endogenous methionine residue 456 to glutamate 766, according to the residue numbering system of Mohammadi et al., Mol. Cell. Biol., 16, 977–989 (1996). In addition, the construct also has the following 3 amino acid substitutions: L457V, C488A, and C584S.
(§1) The production of ADP from ATP that accompanies phosphoryl transfer was coupled to oxidation of NADH using phosphoenolpyruvate (PEP) and a system having pyruvate kinase (PK) and lactic dehydrogenase (LDH). The oxidation of NADH was monitored by following the decrease of absorbance at 340 nm (e340=6.22 cm^−1 mM^−1) using a Beckman DU 650 spectrophotometer. Assay conditions for phosphorylated VEGF-R2A50 (indicated as FLVK-P in the tables below) were the following: 1 mM PEP; 250 μM NADH; 50 units of LDH/mL; 20 units of PK/mL; 5 mM DTT; 5.1 mM poly(E4Y1); 1 mM ATP; and 25 mM MgCl2 in 200 mM HEPES, pH 7.5. Assay conditions for unphosphorylated VEGF-R2Δ50 (indicated as FLVK in the tables) were the following: 1 mM PEP; 250 μM NADH; 50 units of LDH/mL; 20 units of PK/mL; 5 mM DTT; […]; 3 mM ATP; and 60 mM MgCl2 and 2 mM MnCl2 in 200 mM HEPES, pH 7.5. Assays were initiated with 5 to 40 nM of enzyme. Ki values were determined by measuring enzyme activity in the presence of varying concentrations of test compounds. The data were analyzed using Enzyme Kinetic and Kaleidagraph software.
The spectrophotometric assay was carried out as described above for VEGF-R2, except for the following changes in concentration: FGF-R=50 nM, ATP=2 mM, and poly(E4Y1)=15 mM.

Test [2] deals with T2, unphosphorylated VEGF-R2Δ50 (Homo sapiens, UniProt P35968, DEL940-989/E990V).
T2 construct: VEGF-R2Δ50 contains residues 806–939 and 990–1171; made in house; host or cells: baculovirus/insect cell system
The experiment in a line: VEGF-R2 coupled spectrophotometric assay, unphosphorylated construct (FLVK). Format: biochemical. The note with it: % inhibition at 50 nM compound; read-out: FLVK Ki % inh @ 50 nM.
From the text: This construct determines the ability of a test compound to inhibit tyrosine kinase activity. A construct (VEGF-R2Δ50) of the cytosolic domain of human vascular endothelial growth factor receptor 2 (VEGF-R2) lacking the 50 central residues of the 68 residues of the kinase insert domain was expressed in a baculovirus/insect cell system. Of the 1356 residues of full-length VEGF-R2, VEGF-R2Δ50 contains residues 806–939 and 990–1171, and also one point mutation (E99OV) within the kinase insert domain relative to wild-type VEGF-R2. Autophosphorylation of the purified construct was performed by incubation of the enzyme at a concentration of 4 μM in the presence of 3 mM ATP and 40 mM MgCl2 in 100 mM HEPES, pH 7.5, containing 5% glycerol and 5 mM DTT, at 4° C. for 2 h. […] See Parast et al., Biochemistry, 37,16788–16801 (1998).
as §1

The test system of test [3] is human umbilical vein endothelial cells (HUVEC). The experiment in a line: HUVEC Proliferation Assay (VEGF-stimulated). In kind it is cell-based. As to the method: This assay determines the ability of a test compound to inhibit the growth factor-stimulated proliferation of human umbilical vein endothelial cells (“HUVEC”). HUVEC cells (passage 3–4, Clonetics, Corp.) were thawed into EGM2 culture medium (Clonetics Corp) in T75 flasks. Fresh EGM2 medium was added to the flasks 24 hours later. Four or five days later, cells were exposed to another culture medium (F12K medium supplemented with 10% fetal bovine serum (FBS), 60 μg/mL endothelial cell growth supplement (ECGS), and 0.1 mg/mL heparin). Exponentially-growing HUVEC cells were used in experiments thereafter. Ten to twelve thousand HUVEC cells were plated in 96-well dishes in 100 μl of rich, culture medium (described above). The cells were allowed to attach for 24 hours in this medium. The medium was then removed by aspiration and 105 μl of starvation media (F12K+1% FBS) was added to each well. After 24 hours, 15 μl of test agent dissolved in 1% DMSO in starvation medium or this vehicle alone was added into each treatment well; the final DMSO concentration was 0.1%. One hour later, 30 μl of VEGF (30 ng/mL) in starvation media was added to all wells except those containing untreated controls; the final VEGF concentration was 6 ng/mL. Cellular proliferation was quantified 72 hours later by MTT dye reduction, at which time cells were exposed for 4 hours MTT (Promega Corp.). Dye reduction was stopped by addition of a stop solution (Promega Corp.) and absorbance at 595λ was determined on a 96-well spectrophotometer plate reader.
IC50 values were calculated by curve-fitting the response of A^595 to various concentrations of the test agent; typically, seven concentrations separated by 0.5 log were employed, with triplicate wells at each concentration. For screening compound library plates, one or two concentrations (one well per concentration) were employed, and the % inhibition was calculated by the following formula: % inhibition=(control−test)[…](control−starvation) where
control=A^595 when VEGF is present without test agent
test=A^595 when VEGF is present with test agent
starvation=A^595 when VEGF and test agent are both absent.

For test [4], the target named is T3, PDGFRβ (Homo sapiens, UniProt P09619).
T3 construct: expressed in transfected cells; host or cells: porcine aorta endothelial (PAE) cells
The experiment in a line: PAE-PDGFRβ Phosphorylation in PAE-PDGFRB Cells Assay. The following applies: PAE cells overexpressing human PDGFRβ; read-out: PAE PDGFR autophos IC50. In kind it is cell-based. As to the method:
This assay determines the ability of a test compound to inhibit the autophosphorylation of PDGFRβ in porcine aorta endothelial (PAE)-PDGFRβ cells. PAE cells that overexpress human PDGFRβ were used in this assay. The cells were cultured in Ham's F12 media supplemented with 10% fetal bovine serum (FBS) and 400 ug/ml G418. Twenty thousands cells were seeded in each well of a 96-well plate in 50 μL of growth media and allowed to attach for 6 hours at 37° C. Cells were then exposed to the starvation media (Ham's F12 media supplemented with 0.1% FBS) for 16 hours. After the starvation period was over, 10 μL of test agent in 5% DMSO in starvation media were added to the test wells and 10 μL of the vehicle (5% DMSO in starvation media) were added into the control wells. The final DMSO concentration in each well was 0.5%. Plates were incubated at 37° C. for 1 hour and the cells were then stimulated with 1 μg/mL PDGF-BB (R & D System) in the presence of 2 mM Na3VO4 for 8 minutes. The cells were washed once with 1 mm Na3VO4 in HBSS and lysed by adding 50 μL per well of lysis buffer. One hundred μL of dilution buffer were then added to each well and the diluted cell lysate was transferred to a 96-well goat ant-rabbit coated plate (Pierce), which was pre-coated with Rabbit anti Human PDGFRβ antibody (Santa Cruz). The plates were incubated at room temperature for 2 hours and washed seven times with 1% Tween 20 in PBS. HRP-PY20 (Santa Cruz) was diluted and added to the plate for a 30-minute incubation. Plates were then washed again and TMB peroxidase substrate (Kirkegaard & Perry) was added for a 10-minute incubation. One hundred μL of 0.09 N H2SO4 was added into each well of the 96-well plate to stop the reaction. Phosphorylation status was assessed by spectrophotometer reading at 450 nm. IC50 values were calculated by curve fitting using a four-parameter analysis.

Where only a bound is given, the exact number is not on record here.

T1 sequence (P11362 456-766 L457V/C488A/C584S): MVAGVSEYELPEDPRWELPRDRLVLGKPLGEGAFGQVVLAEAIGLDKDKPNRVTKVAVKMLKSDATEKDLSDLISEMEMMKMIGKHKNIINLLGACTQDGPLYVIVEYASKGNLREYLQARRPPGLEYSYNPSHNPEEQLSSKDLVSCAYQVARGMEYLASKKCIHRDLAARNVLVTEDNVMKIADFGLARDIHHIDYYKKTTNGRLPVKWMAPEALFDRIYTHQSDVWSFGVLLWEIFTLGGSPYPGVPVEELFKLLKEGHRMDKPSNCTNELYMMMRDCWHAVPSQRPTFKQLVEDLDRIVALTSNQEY
T2 sequence (P35968 with tags, fused parts or gaps DEL940-989/E990V limits assumed): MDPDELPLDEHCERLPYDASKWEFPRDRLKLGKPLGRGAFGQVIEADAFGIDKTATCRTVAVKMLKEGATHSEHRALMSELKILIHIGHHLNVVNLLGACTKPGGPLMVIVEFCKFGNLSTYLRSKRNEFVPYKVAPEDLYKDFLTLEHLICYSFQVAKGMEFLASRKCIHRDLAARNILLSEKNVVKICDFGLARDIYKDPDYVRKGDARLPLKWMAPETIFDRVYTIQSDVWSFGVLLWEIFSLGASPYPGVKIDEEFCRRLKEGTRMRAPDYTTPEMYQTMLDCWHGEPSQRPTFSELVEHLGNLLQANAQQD
T3 sequence (P09619 33-1106): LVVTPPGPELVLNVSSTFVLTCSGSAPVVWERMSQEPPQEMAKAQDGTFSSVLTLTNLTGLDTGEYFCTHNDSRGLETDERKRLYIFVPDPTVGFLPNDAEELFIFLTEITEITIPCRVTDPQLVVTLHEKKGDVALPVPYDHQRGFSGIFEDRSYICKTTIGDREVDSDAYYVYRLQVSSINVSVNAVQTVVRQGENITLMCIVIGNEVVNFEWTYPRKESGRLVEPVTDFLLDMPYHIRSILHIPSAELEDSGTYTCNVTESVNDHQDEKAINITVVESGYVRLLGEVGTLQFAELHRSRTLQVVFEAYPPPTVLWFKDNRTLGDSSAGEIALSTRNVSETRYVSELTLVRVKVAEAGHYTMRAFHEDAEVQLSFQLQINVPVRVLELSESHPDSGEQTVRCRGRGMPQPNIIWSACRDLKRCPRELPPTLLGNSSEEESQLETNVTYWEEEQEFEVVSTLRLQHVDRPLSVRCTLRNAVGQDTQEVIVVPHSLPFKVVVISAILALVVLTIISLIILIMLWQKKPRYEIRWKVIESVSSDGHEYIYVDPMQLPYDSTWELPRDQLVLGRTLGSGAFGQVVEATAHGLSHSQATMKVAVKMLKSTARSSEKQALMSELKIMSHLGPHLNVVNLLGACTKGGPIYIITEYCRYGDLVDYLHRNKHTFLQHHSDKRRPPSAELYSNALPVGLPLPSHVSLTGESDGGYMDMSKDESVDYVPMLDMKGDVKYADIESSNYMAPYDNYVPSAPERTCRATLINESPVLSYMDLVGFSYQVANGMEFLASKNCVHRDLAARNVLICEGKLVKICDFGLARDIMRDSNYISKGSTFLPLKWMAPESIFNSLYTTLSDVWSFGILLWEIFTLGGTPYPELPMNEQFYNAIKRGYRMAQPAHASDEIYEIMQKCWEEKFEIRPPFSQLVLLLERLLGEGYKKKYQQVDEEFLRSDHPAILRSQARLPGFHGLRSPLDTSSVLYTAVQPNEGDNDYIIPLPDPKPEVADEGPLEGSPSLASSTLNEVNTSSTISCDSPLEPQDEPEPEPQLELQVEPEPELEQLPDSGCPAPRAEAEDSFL

Broadly, the IC50 is the concentration needed to halve the response being measured. For `O=C(NCC#CCO)c1ccccc1Nc1ccc2c(/C=N/n3cccc3)n[nH]c2c1` [Example 57, N-(4-Hydroxy-but-2-ynyl)-2-[3-(pyrrol-1-yliminomethyl)-1H-indazol-6-ylamino]-benzamide], the inhibition at 1 µM in test [1] amounted to 52%. Moreover, the inhibition at 0.05 µM in test [2] stood at 91%. The results for the IC50 in test [3] and in test [4] were under 1.8 nM and 1.3 nM, respectively.

Turning to `C#CCNC(=O)c1ccccc1Nc1ccc2c(/C=N/n3cccc3)n[nH]c2c1` [Example 63, N-Prop-2-ynyl-2-[3-(pyrrol-1-yliminomethyl)-1H-indazol-6-ylamino]-benzamide], the inhibition at 1 µM in test [1] stood at 63%. The inhibition at 0.05 µM in test [2] was found to be 85%. The IC50 in test [3] was 0.1 nM; in test [4] it was 2.4 nM.

Turning to `Cc1ccnc(/C=C/c2n[nH]c3cc(Nc4ccccc4C(=O)NCC#CCO)ccc23)c1` [Example 51, 2-{3-[(E)-2-(4-Methyl-pyridin-2-yl)-vinyl]-1H-indazol6-ylamino}-N-(4-hydroxy-but-2-ynyl)-benzamide], the inhibition at 1 µM in test [1] was 52%. Further, the inhibition at 0.05 µM in test [2] amounted to 82%.

In the case of `C#CCNC(=O)c1ccccc1Nc1ccc2c(C(=O)NC)n[nH]c2c1` [Example 1(k), 6-(2-Prop-2-ynylcarbamoyl-phenylamino)-1H-indazole-3-carboxylic acid methylamide], the inhibition at 1 µM in test [1] was 12%. The inhibition at 0.05 µM in test [2] stood at 27%. This molecule registered a half-inhibitory concentration (IC50) in test [3] of over 10 nM.

For the molecule `Cc1ccnc(/C=C/c2n[nH]c3cc(Nc4ccccc4C(=O)NCc4nccn4C)ccc23)c1` [Example 49, N-(1-Methyl-1H-imidazol-2-ylmethyl)-2-{3-[2-(4-methyl-pyridin-2-yl)-vinyl]-1H-indazol-6-ylamino}-benzamide], the inhibition at 1 µM in test [1] worked out at 36%. Besides, the inhibition at 0.05 µM in test [2] came to 11%.

With `Cc1cc(C)nc(/C=C/c2n[nH]c3cc(Nc4ncccc4C(=O)NCC#CC4CC4)ccc23)c1` [Example 25, N-(3-Cyclopropyl-prop-2-ynyl)-2-{3-[(E)-2-(4,6-dimethyl-pyridin-2-yl)-vinyl]-1H-indazol-6-ylamino}-nicotinamide], the inhibition at 1 µM in test [1] is 13%. The inhibition at 0.05 µM in test [2] was 64%. The IC50 in test [3] is 3 nM.

With `C#CCNC(=O)c1ccccc1Nc1ccc2c(/C=C/c3cc(C)cc(C)n3)n[nH]c2c1` [Example 13, N-(prop-2-ynyl)-2-{3-[(E)-2-(2,4-dimethyl-pyridin-2-yl)-vinyl]-1H-indazol-6-ylamino}-benzamide], in test [1], the inhibition at 1 µM came to 63%. Moreover, the inhibition at 0.05 µM in test [2] was determined as 80%. In test [4], the IC50 is 6 nM.

For the molecule `Cc1ccnc(/C=C/c2n[nH]c3cc(Nc4ccccc4C(=O)NCc4cccc(C)n4)ccc23)c1` [Example 39, N-(6-Methyl-pyridin-2-ylmethyl)-2-{3-[2-(4-methyl-pyridin-2-yl)-vinyl]-1H-indazol-6-ylamino}-benzamide], the inhibition at 1 µM in test [1] turned out to be 76%. For the same molecule, the inhibition at 0.05 µM in test [2] was 96%. For the same molecule, the 50% inhibitory concentration (IC50) in test [4] was found to be 4.7 nM.

Turning to `O=C(NCC#CC1CC1)c1ccccc1Nc1ccc2c(/C=N/n3cccc3)n[nH]c2c1` [Example 55, N-(3-Cyclopropyl-prop-2-ynyl)-2-[3-(pyrrol-1-yliminomethyl)-1H-indazol-6-ylamino]-benzamide], in test [1], the inhibition at 1 µM was determined as 67%. In addition, the inhibition at 0.05 µM in test [2] was 97%. Further, the IC50 in test [3] was 0.2 nM; in test [4], 3.7 nM.

`C=C(C)CNC(=O)c1ccccc1Nc1ccc2c(/C=C/c3cc(C)ccn3)n[nH]c2c1` [Example 34, N-(2-Methyl-allyl)-2-{[(E)-2-(4-methyl-pyridin-2-yl)-vinyl]-1H-indazol-6-ylamino}-benzamide]: the inhibition at 0.05 µM in test [2] stood at 72%. In addition, the IC50 in test [4] is 4.5 nM.

With `CC(=O)OCC#CCNC(=O)c1ccccc1Nc1ccc2c(/C=C/c3cc(C)cc(C)n3)n[nH]c2c1` [Example 20, Acetic acid 4-(2-{3-[(E)-2-(4,6-dimethyl-pyridin-2-yl)-vinyl]-1H-indazol-6-ylamino}-benzoylamino)-but-2-ynyl ester], in test [1], the inhibition at 1 µM is 35%. Besides, the inhibition at 0.05 µM in test [2] amounted to 91%. 0.084 nM corresponded to half-maximal inhibition in test [3] (IC50).

On to `Cc1ccnc(/C=C/c2n[nH]c3cc(Nc4ccccc4C(=O)NCc4nc5ccccc5n4C)ccc23)c1` [Example 45, N-(1-Methyl-1H-benzoimidazol-2-ylmethyl)-2-{3-[(E)2-(4-methyl-pyridin-2-yl)-vinyl]-1H-indazol-6-ylamino}-benzamide], for which the inhibition at 1 µM in test [1] amounted to 24%. Also, in test [2], the inhibition at 0.05 µM is 28%.

Values taken from US7053107B2, “Indazole compounds and pharmaceutical compositions for inhibiting protein kinases, and methods for their use” (Agouron Pharmaceuticals, Inc., priority 2002, dated 2006).
